Experimental data published in patent US20150119329A1, “MODULATION OF ANGIOTENSIN II RECEPTORS FOR THE PREVENTION AND TREATMENT OF MALARIA CEREBRAL” (NEW YORK UNIVERSITY, priority 2012, published 2015).
Peptide text beside a SMILES is read from it.

Tests used:
[1] = system: human brain microvascular endothelial cells (HBMECs); assay: iRBC-induced disruption of interendothelial junctions and detachment of HBMEC monolayer (nuclei count, PrestoBlue viability); assay type: cell-based; settings: P. falciparum iRBCs over HBMECs, 18 hours; compound 10^−5 M
Procedure: Cell viability assay. To assess the viability of the adherent HBMECs PrestoBlue Cell Viability Reagent (Invitrogen) was utilized. […] After 18 hours, the plates were washed twice with PBS, and PrestoBlue Cell Viability Reagent diluted 1:10 with medium, was added. Samples were then incubated for 3 hours at 37° C. PrestoBlue is reduced from blue resazurin to red resorufin in the presence of viable cells. The absorbance (595 nm) was read with a Victor X3 plate reader.

P. berghei ANKA [2] = assay: Brain histopathology (hemorrhages, blood brain barrier integrity) in cerebral malaria mouse model; assay type: in vivo; settings: Losartan 10 mg/Kg/d, CGP-42112A 500 ng/min/kg
Procedure: Cerebral Malaria Experimental Mouse Model. Female C57BL/6J mice were obtained from Taconic Farms Inc. All mice were maintained under barrier conditions. Water and normal laboratory diet were available ad libitum. The infection was performed by inoculating i.p. 10^6 infected erythrocytes with P. berghei ANKA. All procedures involving animals conformed to the Guide for the Care and Use of Laboratory Animals published by US National Institutes of Health (NIH Publication No. 85-23, revised 1985) and were performed with the approval of the Animal Care and Use Committee at the University of New York. Alzet osmotic minipumps (Model 1002; ALZA Scientific Products, Mountain View, Calif., USA) were implanted into C57BL/6J mice at 4 months of age. Pumps were filled either with saline vehicle or solution of CGP-42112A (Sigma Chemical Co.) that delivered (subcutaneously) at 500 ng/min/kg for the duration of the study. Pumps were placed into the subcutaneous space of subcutaneous bupivacaine anesthetized mice through a small incision on the animal back slightly posterior of the shoulder blades that was closed with Reflex 7 mm wound closure system (ALZA Scientific Products, Mountain View, Calif., USA).

P. berghei ANKA [3] = assay: Cerebral malaria experimental mouse model (development of cerebral malaria, mortality); assay type: in vivo; settings: C57BL/6J mice infected with P. berghei ANKA; Losartan 10 mg/Kg/d in drinking water; compared with vehicle treatment

SMILES	damage to HBMECs caused by rupture and release of iRBCs, compared to control [1] [%]	quantification of hemorrhages in brain histological slices (P. berghei ANKA [2]; brains of infected mice (FIG. 4))	structure of the brain vessels and integrity of the blood brain barrier (BBB) (P. berghei ANKA [2]; brains of infected mice, Hematoxillin/Eosin, versus untreated groups)	reduction of mortality (P. berghei ANKA [3])
CC[C@H](C)[C@H](NC(=O)[C@@H]1CCCN1C(=O)[C@H](Cc1c[nH]cn1)NC(=O)[C@H](CCCCNC(=O)[C@H](CCCNC(=N)N)NC(=O)OCc1ccccc1)NC(=O)[C@H](Cc1ccc(O)cc1)NC(=O)c1cccnc1)C(=O)O [CGP-42112A, (25,35)-2-[[(25)-1-[(25)-2-[[(25)-6-[[(25)-5-(diaminomethylideneamino)-2-(phenylmethoxy-carbonylamino)pentanoyl]amino]-2-[[(25)-3-(4-hydroxyphenyl)-2-(pyridine-3-carbonylamino)propanoyl]amino]hexanoyl]amino]-3-(1H-imidazol-5-yl)propanoyl]pyrrolidine-2-carbonyl]amino]-3-methylpentanoic acid] (HELM PEPTIDE1{[O=C(c1cccnc1)[*:2]].Y.K.H.P.I}|PEPTIDE2{[O=C(OCc1ccccc1)[*:2]].R}$PEPTIDE1,PEPTIDE2,3:R3-2:R2$$$V2.0)	20	protective effect	better maintained	–
CCCCc1nc(Cl)c(CO)n1Cc1ccc(-c2ccccc2-c2nnn[nH]2)cc1 [Losartan, (2-butyl-4-chloro-1-{[2′-(1H-tetrazol-5-yl)biphenyl-4-yl]methyl]-1H-imidazol-5-yl)methanol]	–	–	–	4-5 times
